The values that follow come from US9463190B2, “Methods of treating disease-induced ataxia and non-ataxic imbalance” (UNIVERSITY OF SOUTH FLORIDA, priority 2008, dated 2016).

Some results are limits rather than exact numbers.

In one series the test system is ataxia and imbalance. The conditions noted are these: case series and small controlled trials; cited from earlier work.
For series [1], the system named is cerebellar symptoms of SCA type 3. Description: Case report: person with SCA type 3 taking varenicline (Example 2, first patient). The series is classed as in vivo, human. As to conditions: for total SARA score: blinded video rating. An excerpt: The first patient was a person with a 16-year history of imbalance, gait dysfunction, and dysarthria who presented to an academic movement disorders center for management of their symptoms. […] Their medical history included one myocardial infarction 2 years ago, coronary artery disease, hypertension, and hyperlipidemia. […] On examination, the patient's vital signs and physical examination were normal. Their neurologic examination included a Mini-Mental Status Exam (MMSE) of 30/30, mild dysarthria, mild to moderate postural and intention tremor, mild dystonia in their arms, mild akinesia, and moderate dysmetria in all extremities. Fast alternating hand movements were irregular and marked by interruptions, and their heel to shin slide was severely abnormal bilaterally. Their gait was ataxic and […], and they required the constant use of a walker or the support of a cane to ambulate. Their cranial nerves and motor examination were normal, although there was mild decrease in […] sensory examination to light and deep touch in a stocking-glove distribution. There was increased tone and hyperreflexia in their lower extremities. […] After the evaluation, the patient started varenicline 0.5 mg twice daily for smoking cessation. The dose of varenicline was increased to 1 mg twice daily after one week. […] The patient returned to the academic movement disorders center one month after starting varenicline for routine follow-up. […] A videotape of the patient was scored by a blinded movement disorders expert using the SARA (Scale for Assessment and Rating of Ataxia) (1). The total SARA score prior to the patient taking varenicline 1 mg twice daily was 29, while the score one month after starting varenicline was 13.

The subject of series [2] is ataxia and imbalance in Fragile X-associated Tremor Ataxia syndrome (FXTAS). Description: Case report: person with FXTAS taking varenicline (Example 1). The series is classed as in vivo, human. The conditions noted are these: for SARA score, functional staging for ataxia / SARA score, gait / SARA score, tandem walking: blinded video rating. The method, then:
The patient was a person with a nine-year history of postural and intention tremor of their arms and a four-year history of gait ataxia. Their symptoms became disabling in the past year with frequent falls despite the intermittent use of a walker. […] A timeline of the patient's clinical course is depicted in FIG. 1. […] One week after taking varenicline, they noted that their walking improved and they no longer needed assistance from a walker to ambulate. […] The patient was evaluated by the University of South Florida (USF) movement disorders center seven weeks after starting varenicline. Vital signs and physical examination were normal. Their neurological examination included a Mini Mental State Exam (MMSE) of 26/30, mild dysarthria, mild voice tremor, severe postural and intention tremor of their arms, mild rigidity, and moderate dysmetria in all extremities. They were able to get out of a chair without assistance, and continued to walk six meters five times (30 meters total) without rest or the assistance of a walker. They were able to tandem walk for two to three steps. The rest of their neurological exam, including cranial nerves, reflexes, motor and sensory examination, was within normal limits. The patient received a score of 5 (out of a maximum possible score=63) on a Beck's Depression Scale (BDI) (2). […] Chest X-ray was clear, with no evidence of neoplasia. The patient stopped varenicline seven weeks after starting it. Within 10 days, they reported a slight worsening of the residual ataxia and imbalance. Within three weeks, they again needed a walker for ambulation and began to fall daily. The patient returned to clinic off varenicline. […] They once again needed assistance to walk and was unable to tandem walk even with assistance. The rest of the neurological examination remained unchanged, including the postural and intention tremor. […] At week 11, the patient re-started varenicline one mg twice daily, and again noted improvement in ataxia within one week. Due to vivid dreams, the varenicline dose was decreased to one mg daily at week 12. The patient has taken varenicline for 22 weeks, with a sustained ataxia improvement. A videotape of the patient was scored by a blinded movement disorders expert using the SARA (Scale for Assessment and Rating of Ataxia) (3). The SARA scores on varenicline one mg b.i.d. were “two” for functional staging for ataxia (ataxic symptoms were present and were recognized by patient, but were still mild), “one” for tandem walking (the patient was able to tandem walk in less than perfect manner or the patient could tandem walk greater than four sequential steps but less than eight steps) and “zero” for gait (normal). The SARA scores after the patient had discontinued varenicline for three weeks included a “three” for functional staging for ataxia (ataxic symptoms considered overt and significant), “three” for tandem walking (the patient was considered too poorly coordinated to attempt the task), and “two” for gait (the patient walked with definite ataxia; may have needed intermittent support for walking or the examiner needed to walk with patient for safety sake).

Series [3] deals with α4β2 nicotinic acetylcholine receptors (Homo sapiens, UniProt P17787+P43681). As to conditions: cited from earlier work.
Chain of α4β2 nicotinic acetylcholine receptors (P43681 29-627 limits assumed): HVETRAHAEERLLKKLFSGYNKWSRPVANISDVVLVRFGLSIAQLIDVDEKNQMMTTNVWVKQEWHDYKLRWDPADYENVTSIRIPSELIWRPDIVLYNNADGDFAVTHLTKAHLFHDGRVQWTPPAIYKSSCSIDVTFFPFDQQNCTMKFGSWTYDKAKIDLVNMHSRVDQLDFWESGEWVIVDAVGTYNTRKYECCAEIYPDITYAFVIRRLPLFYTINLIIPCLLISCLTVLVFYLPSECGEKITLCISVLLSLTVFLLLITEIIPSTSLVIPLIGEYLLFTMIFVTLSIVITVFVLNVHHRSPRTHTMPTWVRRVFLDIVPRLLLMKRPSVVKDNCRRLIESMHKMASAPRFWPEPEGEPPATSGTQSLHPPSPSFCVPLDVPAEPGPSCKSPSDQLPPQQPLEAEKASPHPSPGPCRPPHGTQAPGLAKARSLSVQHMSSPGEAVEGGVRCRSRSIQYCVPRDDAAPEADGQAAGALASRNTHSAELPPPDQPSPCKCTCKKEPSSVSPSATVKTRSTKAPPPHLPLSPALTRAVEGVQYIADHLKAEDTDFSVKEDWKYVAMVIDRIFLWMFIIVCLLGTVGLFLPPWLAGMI
Chain of α4β2 nicotinic acetylcholine receptors (P17787 26-502): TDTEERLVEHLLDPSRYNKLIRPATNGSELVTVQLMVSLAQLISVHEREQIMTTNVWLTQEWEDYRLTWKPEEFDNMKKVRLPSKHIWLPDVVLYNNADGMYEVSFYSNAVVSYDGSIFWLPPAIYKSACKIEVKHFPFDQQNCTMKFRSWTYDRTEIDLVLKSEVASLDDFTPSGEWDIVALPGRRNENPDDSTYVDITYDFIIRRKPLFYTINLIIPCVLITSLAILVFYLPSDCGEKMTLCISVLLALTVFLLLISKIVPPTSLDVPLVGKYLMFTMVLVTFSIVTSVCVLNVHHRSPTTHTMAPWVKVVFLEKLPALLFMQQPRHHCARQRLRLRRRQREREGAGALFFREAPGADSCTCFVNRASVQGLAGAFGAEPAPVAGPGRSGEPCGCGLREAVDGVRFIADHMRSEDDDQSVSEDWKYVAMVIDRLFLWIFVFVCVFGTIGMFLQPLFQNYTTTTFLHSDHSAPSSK
The target of series [4] is α7 nicotinic acetylcholine receptors (Homo sapiens, UniProt P36544). The conditions noted are these: cited from earlier work.
Chain of α7 nicotinic acetylcholine receptors (P36544 23-502): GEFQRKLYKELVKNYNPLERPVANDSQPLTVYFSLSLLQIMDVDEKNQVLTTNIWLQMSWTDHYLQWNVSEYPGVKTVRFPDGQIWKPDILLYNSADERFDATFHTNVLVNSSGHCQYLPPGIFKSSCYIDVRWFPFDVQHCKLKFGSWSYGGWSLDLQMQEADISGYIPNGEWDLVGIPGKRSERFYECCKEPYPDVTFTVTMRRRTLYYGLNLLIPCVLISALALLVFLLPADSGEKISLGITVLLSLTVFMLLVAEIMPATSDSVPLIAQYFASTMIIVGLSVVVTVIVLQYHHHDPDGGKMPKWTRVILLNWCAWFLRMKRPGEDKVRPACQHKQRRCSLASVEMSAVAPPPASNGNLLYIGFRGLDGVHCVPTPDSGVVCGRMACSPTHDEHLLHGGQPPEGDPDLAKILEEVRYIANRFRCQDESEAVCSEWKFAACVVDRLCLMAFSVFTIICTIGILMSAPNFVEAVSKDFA
Series [5] deals with cerebellar symptoms of SCA14. Description: Case report: person with SCA14 taking varenicline (Example 2, second patient). Type of series: in vivo, human. As to conditions: for total SARA score: blinded rating; for effect of prior medications on cerebellar symptoms: SCA14 patient, before varenicline. The method, then: The second patient was a person who presented to an academic movement disorders center for neurologic evaluation. […] They had never smoked or used drugs or alcohol and had no allergies. Their medical history was significant for hypertension, which was treated with 325 mg of valsartan (Diovan). Prior medications to treat their cerebellar symptoms included levodopa/carbidopa (Sinemet), lorazepam (Ativan), clonazapem (Klonopin), and zolpidem (Ambien), to no avail.
On evaluation, the patient's vital signs and physical examination were normal. Their neurologic examination included a Mini-Mental Status Examination of 30/30, mild dysarthria, mild postural and intention tremor, and moderate dysmetria in all extremities. Their gait consisted of moderate to severe ataxia, and they required the constant use of a walker or the support of a cane to ambulate. The patient could tandem walk only with support. Increased tone and hyperreflexia were present in their lower extremities, with occasional myoclonus of their right leg.
The patient was started on 0.5 mg of varenicline (Chantix®) once a day, titrating to 1 mg twice daily after 1 week with the understanding that this was being used as an off-label medication. […] The patient returned to the academic movement disorders center 3 weeks after starting varenicline. […] The patient was scored by a blinded movement disorders expert using the SARA. The patient's total SARA score before taking 1 mg of varenicline twice daily was 22, whereas the score 3 weeks after starting varenicline was 8. The patient remained on varenicline for 8 weeks with continued efficacy but discontinued it owing to financial considerations.

The subject of series [6] is cerebellar symptoms of spinocerebellar ataxia (SCA) and Fragile-X-Associated Tremor Ataxia Syndrome (FXTAS). Description: Open-label varenicline in ataxic patients; SARA and CGI, blinded video assessment. Type of series: in vivo, human. The method, then:
DESIGN/METHODS: Seven patients from an academic movement disorders center with spinocerebellar ataxia (n=6) and […]=1), were treated with open-label varenicline 1 mg twice daily. Two patients had genetically confirmed SCA 3, 1 patient had genetically confirmed SCA 6, 3 patients had sporadic cerebellar ataxia with no family history, and 1 patient had genetically-confirmed FXTAS. Patients were treated for 4 weeks with varenicline, which was discontinued on day 30. They were assessed at baseline and after 4 weeks using the Scale for the Assessment and Rating of Ataxia (SARA) (Schmitz-Hubsch et al, 2006) and the Clinical Global Impression (CGI) scale. Ataxia experts blindly assessed videotapes of the patients. […] In the remaining 5 patients, there was a mean improvement of 2.4 points in gait scores and of 5 points for the total SARA scores with varenicline use.

For series [7] the following is noted: in vivo; cited from earlier work.
The mark [8] stands for this setting: one month after starting varenicline.
[9] abbreviates: twenty-one days after first taking varenicline.
[10] abbreviates: varenicline discontinued for three weeks.
The mark [11] stands for this setting: varenicline stopped after seven weeks.
[12] abbreviates: 3 weeks after starting varenicline.
The mark [13] stands for this setting: of 5 remaining patients, 1 mg twice daily, 4 weeks.

Consider `Nc1nnc(-c2cccc(Cl)c2Cl)c(N)n1` [lamotrigine], for which the “efficacy in ataxia and imbalance” value in the series with ataxia and imbalance is recorded as “either conflicting results or limited efficacy”.
Turning to `c1cnc2cc3c(cc2n1)[C@@H]1CNC[C@H]3C1` [varenicline, 7,8,9,10-tetrahydro-6,10-methano-6H-pyrazino (2,3-h)(3) benzazepine], the “time to reported improvement in depth perception and easier, more stable walking” value in series [1] (0.5 mg twice daily, 1 mg twice daily after one week) is given as “Ten”. In series [1] (setting [8]), the “gait dysfunction and akinesia” value is “improved markedly”; the “limb dysmetria, fast alternating movements, finger to nose and heel-shin slide” value was “markedly improved”; the “total SARA score” value was 13. Besides, the “total SARA score” value in series [1] (prior to taking varenicline 1 mg twice daily) is on record as 29. In addition, in series [1] (setting [9]), the balance entry was “markedly improved” and the “distance walked using only a cane rather than a walker” value was 3 blocks. Besides, in series [1] (while taking varenicline), the smoking cessation result is “did not stop smoking cigarettes”. In series [2] (FXTAS patient), the “ataxia and imbalance after starting varenicline” value was “greatly improved”; the “duration of sustained response after open-label resumption” value is “five”. Besides, in series [2] (after discontinuation), the “BDI score off varenicline” value is reported as “had not changed” and the “neurological examination off varenicline” value is “returned to the pre-varenicline state”. Moreover, the “duration of varenicline use with sustained ataxia improvement” value in series [2] (dose decreased to one mg daily at week 12) was found to be 22 weeks. In series [2] (on varenicline one mg b.i.d.), the “SARA score, functional staging for ataxia” value is listed as “two”; the “SARA score, gait” value is “zero”; the “SARA score, tandem walking” value was “one”. Besides, in series [2] (one mg twice daily), the “onset of vivid dreaming after starting” value is “two”; the side effect entry is “vivid dreaming”; the smoking cessation result is listed as “helped them quit smoking in a few days”; the “time until walking improved and walker no longer needed” value is “One”. For the same compound, the balance entry in series [2] (one mg twice daily, one week) was “marked improvement”. Also, in series [2] (seven weeks after starting varenicline, maximum possible score 63), the “Beck's Depression Scale (BDI) score” value came to 5. In addition, in series [2] (seven weeks after starting varenicline, six meters five times), the “distance walked without rest or assistance of a walker” value is recorded as 30 meters. In addition, in series [2] (setting [10]), the “SARA score, functional staging for ataxia” value is “three”; the “SARA score, gait” value is listed as “two”; the “SARA score, tandem walking” value is recorded as “three”. Also, in series [2] (setting [11]), the “time to slight worsening of residual ataxia and imbalance after stopping” value is at most 10 days; the “time until walker again needed and daily falls after stopping” value is reported as “three”. Moreover, the “type of activity at α4β2 nicotinic acetylcholine receptors” value in series [3] is “highly selective partial agonist”. The “type of activity at α7 nicotinic acetylcholine receptors” value in series [4] is “full agonist”. The “duration of nausea after taking the medication” value in series [5] (0.5 mg once a day, titrating to 1 mg twice daily after 1 week) is 7 days. In addition, in series [5] (setting [12]), the “speech, dysmetria, finger-to-nose and heel-to-shin maneuvers” value is given as “markedly improved”; the “total SARA score” value worked out at 8. In addition, the gait dysfunction entry in series [5] (3 weeks after starting varenicline, could walk without assistance) is on record as “improved markedly”. In addition, the “neurologic examination after discontinuation” value in series [5] (4 weeks after discontinuing varenicline) is “returned to prevarenicline status”. Besides, the “time to reported marked improvements in walking, coordination, speech and balance” value in series [5] (after starting varenicline) is reported as 8 days. Besides, the “total SARA score” value in series [5] (before taking 1 mg of varenicline twice daily) amounted to 22. In series [5] (discontinued owing to financial considerations), the “duration on varenicline with continued efficacy” value stood at 8 weeks. In series [6] (5 remaining patients, varenicline 1 mg twice daily, 4 weeks vs baseline), the “mean improvement in total SARA scores” value was found to be 5 points. Further, the “mean improvement in gait scores” value in series [6] (5 remaining patients, varenicline 1 mg twice daily, 4 weeks vs baseline, SARA) was 2.4 points. In series [6] (blinded video analysis of ataxic patients), the “effect on cerebellar symptoms (conclusion)” value is listed as “effectively treat cerebellar symptoms”. Besides, in series [6] (setting [13]), the “patients with marked improvement in gait as measured by the CGI” value was “Three” and the “patients with moderate improvement in gait as measured by the CGI” value is on record as 2 patients. Also, the “reason for discontinuation of varenicline” value in series [6] (two of seven patients (one SCA 6, one sporadic ataxia)) is “flu-like symptoms and increased tremor”. Besides, in series [6] (two smokers with marked improvement in gait, while taking varenicline), the “reduction of intake of cigarettes” value is on record as 50%. In addition, in series [7], the adverse effects result was “nausea, sleep disturbance, constipation, flatulence, and vomiting”; the “potential risks associated with use” value is “suicidal behavior, depressed mood, and agitation”.
Consider `O=C1CC2(CCCC2)CC(=O)N1CCCCN1CCN(c2ncccn2)CC1` [buspirone], for which, in the series with ataxia and imbalance, the “efficacy in ataxia and imbalance” value is “either conflicting results or limited efficacy”.
For the compound `O=C1Nc2ccc(Cl)cc2C(c2ccccc2Cl)=NC1O` (stereo not drawn) [lorazepam], in series [5], the “effect of prior medications on cerebellar symptoms” value is “to no avail”.
Same read-out and setting: under `O=C1CN=C(c2ccccc2Cl)c2cc([N+](=O)[O-])ccc2N1` [clonazapem] stands “to no avail”.
On to `Cc1ccc(-c2nc3ccc(C)cn3c2CC(=O)N(C)C)cc1` [zolpidem], for which the “efficacy in ataxia and imbalance” value in the series with ataxia and imbalance was “either conflicting results or limited efficacy”. Also, the “effect of prior medications on cerebellar symptoms” value in series [5] is “to no avail”.
Regarding `CNCCC(Oc1ccc(C(F)(F)F)cc1)c1ccccc1` (stereo not drawn) [fluoxetine], the “efficacy in ataxia and imbalance” value in the series on ataxia and imbalance is recorded as “either conflicting results or limited efficacy”.
